Assay results as given in PubChem BioAssay (NCI).
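Grown in 96-well plates, cells were treated for 48 hours with each compound at five concentrations. Insufficient inhibition: endpoint recorded as highest concentration tested. Abbreviation: GI50, concentration required for 50% inhibition of growth. Definition used: TGI = concentration required for complete inhibition of growth.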

Assays:
Experiment in all cases: NCI anticancer screen, dose series, 48 h
[1] = tested on: 786-0 renal
[2] = tested on: A498 renal
[3] = tested on: A549 NSCLC
[4] = tested on: ACHN renal
[5] = tested on: BT-549 breast
[6] = tested on: CAKI-1 renal
[7] = tested on: CCRF-CEM leukemia
[8] = tested on: COLO 205 colon
[9] = tested on: DU-145 prostate
[10] = tested on: EKVX NSCLC
[11] = tested on: HCC-2998 colon
[12] = tested on: HCT-116 colon
[13] = tested on: HCT-15 colon
[14] = tested on: HL-60(TB) leukemia
[15] = tested on: HOP-62 NSCLC
[16] = tested on: HOP-92 NSCLC
[17] = tested on: HS 578T breast
[18] = tested on: HT29 colon
[19] = tested on: IGROV1 ovarian
[20] = tested on: K-562 leukemia
[21] = tested on: KM12 colon
[22] = tested on: LOX IMVI melanoma
[23] = tested on: M14 melanoma
[24] = tested on: MALME-3M melanoma
[25] = tested on: MCF7 breast
[26] = tested on: MDA-MB-231 breast
[27] = tested on: MDA-MB-435
[28] = tested on: MOLT-4 leukemia
[29] = tested on: NCI-H226 lung
[30] = tested on: NCI-H23 lung
[31] = tested on: NCI-H460 lung
[32] = tested on: NCI-H522 lung
[33] = tested on: NCI/ADR-RES ovarian
[34] = tested on: OVCAR-3 ovarian
[35] = tested on: OVCAR-4 ovarian
[36] = tested on: OVCAR-5 ovarian
[37] = tested on: OVCAR-8 ovarian
[38] = tested on: PC-3 prostate
[39] = tested on: RPMI-8226 leukemia
[40] = tested on: RXF 393 renal
[41] = tested on: SF-268 CNS
[42] = tested on: SF-295 CNS
[43] = tested on: SF-539 CNS
[44] = tested on: SK-MEL-2 melanoma
[45] = tested on: SK-MEL-28 melanoma
[46] = tested on: SK-MEL-5 melanoma
[47] = tested on: SK-OV-3 ovarian
[48] = tested on: SN12C renal
[49] = tested on: SNB-19 CNS
[50] = tested on: SNB-75 CNS
[51] = tested on: SR leukemia
[52] = tested on: SW-620 colon
[53] = tested on: T-47D breast
[54] = tested on: TK-10 renal
[55] = tested on: U251 CNS
[56] = tested on: UACC-62 melanoma
[57] = tested on: UO-31 renal
[58] = tested on: MDA-N
[59] = tested on: UACC-257 melanoma

Nc1nc(OCc2cc(Br)cs2)c2[nH]cnc2n1
GI50 [1]: 22.2 µM
TGI [1]: > 100 µM
GI50 [2]: 11 µM
TGI [2]: 48.3 µM
GI50 [3]: 32.9 µM
TGI [3]: > 100 µM
GI50 [4]: 13.7 µM
TGI [4]: 52 µM
GI50 [5]: 15.7 µM
TGI [5]: 63.9 µM
GI50 [6]: 9.94 µM
TGI [6]: 79.6 µM
GI50 [7]: 37.5 µM
TGI [7]: > 100 µM
GI50 [8]: 34 µM
TGI [8]: > 100 µM
GI50 [9]: 33 µM
TGI [9]: > 100 µM
GI50 [10]: 24.7 µM
TGI [10]: > 100 µM
GI50 [11]: 36.2 µM
TGI [11]: > 100 µM
GI50 [12]: 19.9 µM
TGI [12]: > 100 µM
GI50 [13]: 18.4 µM
TGI [13]: > 100 µM
GI50 [14]: 27.9 µM
TGI [14]: > 100 µM
GI50 [15]: 31.4 µM
TGI [15]: > 100 µM
GI50 [16]: 3.11 µM
TGI [16]: 37 µM
GI50 [17]: 25.6 µM
TGI [17]: 83.7 µM
GI50 [18]: 28.9 µM
TGI [18]: > 100 µM
GI50 [19]: 14.5 µM
TGI [19]: 52.1 µM
GI50 [20]: 29.7 µM
TGI [20]: > 100 µM
GI50 [21]: 23.2 µM
TGI [21]: > 100 µM
GI50 [22]: 25.3 µM
TGI [22]: 98.1 µM
GI50 [23]: 26.7 µM
TGI [23]: > 100 µM
GI50 [24]: 17.6 µM
TGI [24]: 97.5 µM
GI50 [25]: 25.7 µM
TGI [25]: > 100 µM
GI50 [26]: 27.8 µM
TGI [26]: > 100 µM
GI50 [27]: 29.9 µM
TGI [27]: > 100 µM
GI50 [28]: 28.5 µM
TGI [28]: > 100 µM
GI50 [29]: 24.6 µM
TGI [29]: > 100 µM
GI50 [30]: 21.8 µM
TGI [30]: > 100 µM
GI50 [31]: 25 µM
TGI [31]: > 100 µM
GI50 [32]: 26.8 µM
TGI [32]: > 100 µM
GI50 [33]: 29.5 µM
TGI [33]: > 100 µM
GI50 [34]: 28.1 µM
TGI [34]: > 100 µM
GI50 [35]: 24.9 µM
TGI [35]: > 100 µM
GI50 [36]: 29.8 µM
TGI [36]: > 100 µM
GI50 [37]: 33.3 µM
TGI [37]: > 100 µM
GI50 [38]: 21.8 µM
TGI [38]: > 100 µM
GI50 [39]: 19.1 µM
TGI [39]: > 100 µM
GI50 [40]: 14 µM
TGI [40]: 55.5 µM
GI50 [41]: 32.3 µM
TGI [41]: > 100 µM
GI50 [42]: 25.9 µM
TGI [42]: > 100 µM
GI50 [43]: 18.2 µM
TGI [43]: 62.6 µM
GI50 [44]: 28.8 µM
TGI [44]: 81.3 µM
GI50 [45]: 29.3 µM
TGI [45]: > 100 µM
GI50 [46]: 15.9 µM
TGI [46]: 39.6 µM
GI50 [47]: 21.1 µM
TGI [47]: 57.8 µM
GI50 [48]: 29.6 µM
TGI [48]: > 100 µM
GI50 [49]: 37.6 µM
TGI [49]: > 100 µM
GI50 [50]: 15.7 µM
TGI [50]: 90.2 µM
GI50 [51]: 29.5 µM
TGI [51]: > 100 µM
GI50 [52]: 40.2 µM
TGI [52]: > 100 µM
GI50 [53]: 17.5 µM
TGI [53]: 87.5 µM
GI50 [54]: 10.2 µM
TGI [54]: 62.9 µM
GI50 [55]: 28.8 µM
TGI [55]: > 100 µM
GI50 [56]: 16.3 µM
TGI [56]: 59.7 µM
GI50 [57]: 11.1 µM
TGI [57]: 60.4 µM

C1=C(c2ccccc2)Nc2nnnn2C1c1ccccc1 (centres undefined)
TGI [1]: > 100 µM
TGI [2]: > 100 µM
TGI [3]: > 100 µM
TGI [4]: 57.2 µM
TGI [6]: > 100 µM
TGI [7]: 0.0305 µM
TGI [8]: > 100 µM
TGI [9]: 72.5 µM
TGI [12]: 22.3 µM
TGI [13]: 37.7 µM
TGI [14]: 64.4 µM
TGI [15]: > 100 µM
TGI [17]: > 100 µM
TGI [18]: 41.5 µM
TGI [19]: > 100 µM
TGI [20]: > 100 µM
TGI [21]: 28.6 µM
TGI [22]: 38.3 µM
TGI [23]: 79.8 µM
TGI [25]: 84.6 µM
TGI [26]: > 100 µM
TGI [27]: 47 µM
TGI [58]: > 100 µM
TGI [28]: 60.3 µM
TGI [29]: > 100 µM
TGI [30]: > 100 µM
TGI [31]: > 100 µM
TGI [32]: 69.8 µM
TGI [33]: > 100 µM
TGI [34]: > 100 µM
TGI [36]: > 100 µM
TGI [37]: > 100 µM
TGI [38]: > 100 µM
TGI [40]: 51.1 µM
TGI [41]: > 100 µM
TGI [42]: 88.5 µM
TGI [43]: 81 µM
TGI [44]: > 100 µM
TGI [46]: > 100 µM
TGI [47]: > 100 µM
TGI [48]: > 100 µM
TGI [49]: > 100 µM
TGI [51]: 51.3 µM
TGI [52]: 55.9 µM
TGI [53]: > 100 µM
TGI [54]: 73.9 µM
TGI [55]: 52 µM
TGI [59]: > 100 µM
TGI [56]: > 100 µM
TGI [57]: > 100 µM
